Data reported in the supplement of paper PMC10307832.

Tests used:
Experiment in all cases: relative viability (nuclei count vs DMSO), 5 days (fraction); higher = more cells survive
Shikonin + Dasatinib = compound: CC(C)=CC[C@@H](O)C1=CC(=O)c2c(O)ccc(O)c2C1=O [Shikonin] + Cc1nc(Nc2ncc(C(=O)Nc3c(C)cccc3Cl)s2)cc(N2CCN(CCO)CC2)n1 [Dasatinib] (partner 0.075 µM)
Procedure, shortened: (§1)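 Lung cancer cell lines, seeded in 1536-well plates, were treated the following day by pin tool with a single drug or with five library-drug doses (not always all listed) in √10 steps on top of a fixed anchor-drug dose. Cells were fixed and nuclei stained in one step after 5 days, and nuclei were counted. Relative viability is the nuclei count for treated wells divided by that for vehicle wells, reported as medians of duplicate plates.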

[1] = compound: CC(C)N(CCCNC(=O)Nc1ccc(C(C)(C)C)cc1)C[C@H]1O[C@@H](n2ccc3c(N)ncnc32)[C@H](O)[C@@H]1O + COc1cccc2cc(-c3nc([C@H]4CC[C@H](C(=O)O)CC4)n4ncnc(N)c34)[nH]c12 [OSI-027] (partner 0.5 µM)
Procedure, shortened: as §1

[2] = compound: CC(C)N(CCCNC(=O)Nc1ccc(C(C)(C)C)cc1)C[C@H]1O[C@@H](n2ccc3c(N)ncnc32)[C@H](O)[C@@H]1O + Cc1nc(NC(=O)N2CCC[C@H]2C(N)=O)sc1-c1ccnc(C(C)(C)C(F)(F)F)c1 [Alpelisib] (partner 2 µM)
Procedure, shortened: as §1

[3] = compound: CC(C)N(CCCNC(=O)Nc1ccc(C(C)(C)C)cc1)C[C@H]1O[C@@H](n2ccc3c(N)ncnc32)[C@H](O)[C@@H]1O + O=C(CCCCCCC(=O)Nc1ccccc1)NO [Vorinostat] (partner 1 µM)
Procedure, shortened: as §1

Cell Line	relative viability (Shikonin + Dasatinib; first compound 0.01 µM)	relative viability (Shikonin + Dasatinib; first compound 0.1 µM)	relative viability (Shikonin + Dasatinib; first compound 0.3162 µM)	relative viability (Shikonin + Dasatinib; first compound 1 µM)	relative viability ([1]; first compound 0.08 µM)	relative viability ([1]; first compound 0.253 µM)	relative viability ([1]; first compound 0.8 µM)	relative viability ([1]; first compound 2.53 µM)	relative viability ([1]; first compound 8 µM)	relative viability ([2]; first compound 0.08 µM)	relative viability ([2]; first compound 0.8 µM)	relative viability ([2]; first compound 2.53 µM)	relative viability ([2]; first compound 8 µM)	relative viability ([3]; first compound 0.08 µM)	relative viability ([3]; first compound 0.253 µM)	relative viability ([3]; first compound 0.8 µM)	relative viability ([3]; first compound 2.53 µM)	relative viability ([3]; first compound 8 µM)	relative viability ([2]; first compound 0.253 µM)
LCLC-97TM1	0.877	0.848	1.09	0.815	0.555	0.642	0.716	0.557	0.679	0.251	0.267	0.174	0.222	0.893	0.656	0.801	0.661	0.831	–
PC-14	0.224	0.258	0.263	0.24	0.826	0.802	0.786	0.872	0.745	0.883	0.988	0.964	0.794	0.71	0.722	0.624	0.702	0.561	0.818
NCI-H1355	0.6	0.676	0.721	0.787	0.375	0.473	0.374	0.472	0.428	0.768	–	0.772	0.804	0.592	0.632	0.529	0.642	0.575	0.809
HOP-62	0.66	0.593	0.701	0.747	0.864	0.89	0.767	0.751	0.681	0.997	0.912	0.971	0.909	0.711	0.555	0.445	0.58	0.458	1.16
NCI-H2087	0.868	1.1	0.83	0.893	0.443	0.707	0.402	0.653	0.586	1.04	1.14	1.24	1.11	0.681	0.732	0.929	0.668	0.512	1.21
